Laboratory results as given in patent US11559575B2, “Multi-epitopic peptide compounds and vaccines against leishmaniasis” (INSTITUT DE RECHERCHE POUR LE DEVELOPPEMENT, priority 2018, dated 2023).
“Also recorded” adds a separate entry of the source.

Experiments:
HLA alleles of class I = assay: Affinity of epitopes for HLA alleles of class I; type: binding, human; conditions: for Concatenation affinity allele CII: PSA KC-2.6 Peptide CII; for Affinity HLA alleles of class I: PSA KC-2.6 core; for Affinity for the HLA alleles of class I: H2B-1 epitopes, Table 1; for Affinity allele class I: LmLRAB-IIA peptides
Text: (§1) The multiepitopic peptide compounds (24 to 40-mer), having a high affinity with a maximized number of HLA molecules of class I and of class II, such as the affinities for the alleles HLA of class I and HLA of class II of the epitopes in the peptides of the sequences SEQ ID NO: 22, 23, 65, 66, 69, 73, 77, 96, 97, 137, 138, and 157, 185, have a high immunoprevalent potential corresponding to an optimal vaccine coverage, in particular for the populations concerned. The degree of coverage of the peptide compounds of the invention show a very high added value compared with the peptides of the prior art.

HLA alleles of class II = assay: Affinity of epitopes for HLA alleles of class II; type: binding, human
Text: as §1

[1] = LmlRAB-IIB Peptide CII, Table 2

Which “Concatenation affinity allele CII” value (HLA alleles of class I; Table 3) does the source give for “ARSARSGEGY (listed as Leishmania infantum) [SEQ ID NO: 151]” here?
Its value is “HLA-B*15:01”.

Which “Concatenation affinity allele CII” value (HLA alleles of class I; Table 3) does the source give for “ARSGEGYFL (listed as Leishmania infantum) [SEQ ID NO: 152]” here?
Its value is “HLA-B*39:01”.

“DVHYSEVSA (Leishmania major) [SEQ ID NO: 128]” was tested. Which “Concatenation affinity for HLA alleles of class I” value (HLA alleles of class I; [1]) did it give?
Its value is “HLA-A*68*02”.

With “ENAIVTSRK (Leishmania major) [SEQ ID NO: 129]” as the sequence, how does the “Concatenation affinity for HLA alleles of class I” value (HLA alleles of class I; [1]) read?
Its value is “HLA-A*68:01”.

With “EVFDLFTDV (Leishmania major) [SEQ ID NO: 120]” as the sequence, how does the “Affinity for HLA alleles of class I” value (HLA alleles of class I; LmlRAB-IIB core, Table 2) read?
Its value is “HLA-A*02:03,; also recorded: HLA-A*02:06,; also recorded: HLA-A*68:02”.

For “FDLFTDVHY (Leishmania major) [SEQ ID NO: 130]”, which “Concatenation affinity for HLA alleles of class I” value (HLA alleles of class I; [1]) is on record?
Its value is “HLA-A*02:01, HLA-B*35:01”.

For “FLTDEKTSL (listed as Leishmania infantum) [SEQ ID NO: 146]”, which “Affinity HLA alleles of class I” value (HLA alleles of class I; Table 3) is on record?
The value was “HLA-A*02:01,; also recorded: HLA-A*02:03,; also recorded: HLA-A*02:06,; also recorded: HLA-B*39:01”.

With “FLTDEKTSLV (listed as Leishmania infantum) [SEQ ID NO: 153]” as the sequence, how does the “Concatenation affinity allele CII” value (HLA alleles of class I; Table 3) read?
Its value is “HLA-A*01:01, HLA-A*02:01”.

With “FTDVHYSEV (Leishmania major) [SEQ ID NO: 121]” as the sequence, how does the “Concatenation affinity for HLA alleles of class II” value (HLA alleles of class II; LmlRAB-IIB core, Table 2) read?
The value was “HLA-DRB1*07:01,; also recorded: HLA-DRB1*09:01,; also recorded: HLA-DRPA*01:03/; also recorded: DPB1*04:01,; also recorded: HLA-DPA1*01:03/; also recorded: DPB1*02:01”.

And the “Affinity for HLA alleles of class I” value (HLA alleles of class I; LmlRAB-IIB core, Table 2)?
Its value is “HLA-A*02:01,; also recorded: HLA-A*02:03,; also recorded: HLA-A*02:06,; also recorded: HLA-A*35:01,; also recorded: HLA-A*68:02”.

“GSDYSHSMIR (listed as Leishmania infantum) [SEQ ID NO: 179]” was tested. Which “Concatenation affinity for HLA alleles of class I” value (HLA alleles of class I; PSA KC-2.7 peptides, Table 3) did it give?
Its value is “HLA-A*03:01”.

How did the “Concatenation affinity for HLA alleles of class II” value (HLA alleles of class II; PSA KC-2.7 core, Table 3) turn out when “HSMIRDLDF (listed as Leishmania infantum) [SEQ ID NO: 173]” was run?
Its value is “HLA-DRB4*01:01”.

What about the “Affinity for HLA alleles of class I” value (HLA alleles of class I; PSA KC-2.7 core, Table 3) of the same sequence?
Its value is “HLA-B*35:01,; also recorded: HLA-B*58:01”.

Which “Concatenation affinity for HLA alleles of class II” value (HLA alleles of class II; LmLRAB-IIA core, Table 2) does the source give for “IVADHMPHL (Leishmania major) [SEQ ID NO: 89]” here?
The value was “HLA-DRB1*03:01,; also recorded: HLA-DRB1*13:02,; also recorded: HLA-DRB3*01:01”.

What about the “Affinity for HLA alleles of class I” value (HLA alleles of class I; LmLRAB-IIA core, Table 2) of the same sequence?
Its value is “HLA-A*02:01,; also recorded: HLA-A*02:03,; also recorded: HLA-A*02:06”.

Which results are given for “KAINAQMSM (Leishmania major) [SEQ ID NO: 3]”?
Affinity for the HLA alleles of class II (HLA alleles of class II; H2B-1 epitopes, Table 1): DRB4*01:01; Affinity for the HLA alleles of class I (HLA alleles of class I): HLA-B*58:01,; also recorded: HLA-B*57:01,; also recorded: HLA-B*15:01,; also recorded: HLA-A*30:01

With “KEMPSGSDY (listed as Leishmania infantum) [SEQ ID NO: 180]” as the sequence, how does the “Concatenation affinity for HLA alleles of class I” value (HLA alleles of class I; PSA KC-2.7 peptides, Table 3) read?
The value was “HLA-B*15:01, HLA-A*30:02,; also recorded: HLA-B*44:02, HLA-B*44:03”.

For “KGRLHSVVG (Leishmania major) [SEQ ID NO: 92]”, which “Affinity allele class I” value (HLA alleles of class I; Table 2) is on record?
The value was “HLA-A*30:1”.

“KGRSENAIV (Leishmania major) [SEQ ID NO: 131]” was tested. Which “Concatenation affinity for HLA alleles of class I” value (HLA alleles of class I; [1]) did it give?
Its value is “HLA-A*30:01”.

With “KVQEEVFDL (Leishmania major) [SEQ ID NO: 132]” as the sequence, how does the “Concatenation affinity for HLA alleles of class I” value (HLA alleles of class I; [1]) read?
The value was “HLA-A*02:01, HLA-A*02:06, HLA-A*32:01”.

Which “Concatenation affinity for HLA alleles of class I” value (HLA alleles of class I; [1]) does the source give for “LFTDVHYSEV (Leishmania major) [SEQ ID NO: 133]” here?
Its value is “HLA-A*01:01”.

For “LTDEKTSLV (listed as Leishmania infantum) [SEQ ID NO: 148]”, which “Concatenation affinity for HLA alleles of class II” value (HLA alleles of class II; PSA KC-2.6 core, Table 3) is on record?
The value was “HLA-DRB1*04:01”.

What about the “Affinity HLA alleles of class I” value (HLA alleles of class I; Table 3) of the same sequence?
Its value is “HLA-A*02:01,; also recorded: HLA-A*02:03,; also recorded: HLA-A*02:06,; also recorded: HLA-A*68:02”.

“LTDEKTSLVY (listed as Leishmania infantum) [SEQ ID NO: 154]” was tested. Which “Concatenation affinity allele CII” value (HLA alleles of class I; Table 3) did it give?
The value was “HLA-A*01:01, HLA-B*15:01”.

How did the “Concatenation affinity for HLA alleles of class I” value (HLA alleles of class I; PSA KC-2.7 peptides, Table 3) turn out when “MIRDLDFSNM (listed as Leishmania infantum) [SEQ ID NO: 181]” was run?
The value was “HLA-B*15:01”.

With “MPSGSDYSH (listed as Leishmania infantum) [SEQ ID NO: 182]” as the sequence, how does the “Concatenation affinity for HLA alleles of class I” value (HLA alleles of class I; PSA KC-2.7 peptides, Table 3) read?
Its value is “HLA-B*35:01, HLA-B*53:01”.

With “NMGLLLSGT (listed as Leishmania infantum) [SEQ ID NO: 183]” as the sequence, how does the “Concatenation affinity for HLA alleles of class I” value (HLA alleles of class I; PSA KC-2.7 peptides, Table 3) read?
The value was “HLA-A*02:02”.

With “RLHSVVGRH (Leishmania major) [SEQ ID NO: 93]” as the sequence, how does the “Affinity allele class I” value (HLA alleles of class I; Table 2) read?
Its value is “HLA-A*03:01, HLA-A*30:02”.

For “RSARSGEGY (listed as Leishmania infantum) [SEQ ID NO: 155]”, which “Concatenation affinity allele CII” value (HLA alleles of class I; Table 3) is on record?
Its value is “HLA-A*30:02, HLA-B*15:01, HLA-B*57:01,; also recorded: HLA-B*58:01”.

For “RSARSGEGYF (listed as Leishmania infantum) [SEQ ID NO: 156]”, which “Concatenation affinity allele CII” value (HLA alleles of class I; Table 3) is on record?
The value was “HLA-B*15:01, HLA-B*58:01”.

With “SDYSHSMIR (listed as Leishmania infantum) [SEQ ID NO: 177]” as the sequence, how does the “Concatenation affinity for HLA alleles of class II” value (HLA alleles of class II; PSA KC-2.7 core, Table 3) read?
Its value is “HLA-DRB1*07:01,; also recorded: HLA-DRB5*01:01”.

What about the “Affinity for HLA alleles of class I” value (HLA alleles of class I; PSA KC-2.7 core, Table 3) of the same sequence?
The value was “HLA-A*31:01,; also recorded: HLA-A*68:01”.

How did the “Concatenation affinity for HLA alleles of class I” value (HLA alleles of class I; [1]) turn out when “SENAIVTSR (Leishmania major) [SEQ ID NO: 134]” was run?
Its value is “HLA-A*31:01, HLA-B*44:03, HLA-A*68:01”.

How did the “Concatenation affinity for HLA alleles of class I” value (HLA alleles of class I; PSA KC-2.7 peptides, Table 3) turn out when “SMIRDLDFS (listed as Leishmania infantum) [SEQ ID NO: 184]” was run?
The value was “HLA-A*02:03, HLA-A*02:06”.

With “SMSHRTMKSM (Leishmania major) [SEQ ID NO: 19]” as the sequence, how does the “Affinity for the HLA alleles of class I” value (HLA alleles of class I) read?
The value was “HLA-B*15:01,; also recorded: HLA-B*57:01,; also recorded: HLA-A*02:03,; also recorded: HLA-B*08:01”.

“SVVGRHLSI (Leishmania major) [SEQ ID NO: 94]” was tested. Which “Affinity allele class I” value (HLA alleles of class I; Table 2) did it give?
Its value is “HLA-A*02:03, HLA-A*02:06, HLA-A*32:01,; also recorded: HLA-B*08:01”.

How did the “Affinity for the HLA alleles of class I” value (HLA alleles of class I) turn out when “TMKSMSHRTM (Leishmania major) [SEQ ID NO: 21]” was run?
Its value is “HLA-B*15:01,; also recorded: HLA-B*08:01”.

How did the “Concatenation affinity for HLA alleles of class I” value (HLA alleles of class I; [1]) turn out when TSRKDQEEV [SEQ ID NO: 135] was run?
The value was “HLA-B*15:01, HLA-A*30:01, HLA-A*68:02”.

For “VHYSEVSAK (Leishmania major) [SEQ ID NO: 136]”, which “Concatenation affinity for HLA alleles of class I” value (HLA alleles of class I; [1]) is on record?
Its value is “HLA-A*03:01”.

For “VQEEVFDLF (Leishmania major) [SEQ ID NO: 126]”, which “Affinity for HLA alleles of class I” value (HLA alleles of class I; LmlRAB-IIB core, Table 2) is on record?
The value was “HLA-A*02:06”.

“VVGRHLSIV (Leishmania major) [SEQ ID NO: 95]” was tested. Which “Affinity allele class I” value (HLA alleles of class I; Table 2) did it give?
Its value is “HLA-A*02:03”.

Which “Concatenation affinity for HLA alleles of class II” value (HLA alleles of class II; PSA KC-2.7 core, Table 3) does the source give for “YSHSMIRDL (listed as Leishmania infantum) [SEQ ID NO: 178]” here?
Its value is “HLA-DRB1*04:05,; also recorded: HLA-DRB1*07:01,; also recorded: HLA-DRB1*09:01,; also recorded: HLA-DPA1*02:01/; also recorded: DPB1*01:01”.

“YSHSMIRDLDFSNMG (listed as Leishmania infantum) [SEQ ID NO: 170]” was tested. Which “Concatenation affinity for HLA alleles of class II” value (HLA alleles of class II; PSA KC-2.7 peptides, Table 3) did it give?
The value was “HLA-DRB1*04:01, HLA-DRB1*04:05,; also recorded: HLA-DRB1*07:01, HLA-DRB1*08:02,; also recorded: HLA-DRB1*09:01, HLA-DRB1*12:01,; also recorded: HLA-DRB4*01:01”.

With “YVGRSLKAI (Leishmania major) [SEQ ID NO: 54]” as the sequence, how does the “Affinity HLA alleles of class II” value (HLA alleles of class II; H2B-II core epitopes, Table 1) read?
Its value is “HLA-DRB1*08:02,; also recorded: HLA-DPA1*02:01/; also recorded: DPB1*01:01”.

For “YVGRSLKAINAQMSM (Leishmania major) [SEQ ID NO: 33]”, which “Concatenation affinity for the HLA alleles of class II” value (HLA alleles of class II; H2B-II peptides, Table 1) is on record?
The value was “HLA-DRB1*04:01, HLA-DRB1*11:01, HLA-DRB1*08:02,; also recorded: HLA-DRB1*01:01, HLA-DRB1*04:05, HLA-DRB1*07:01,; also recorded: HLA-DRB1*09:01, HLA-DRB4*01:01, HLA-DRB5*01:01,”.
